Laboratory results: US8440610B2, “Mapkap kinase-2 as a specific target for blocking proliferation of P53-defective cells” (Massachusetts Institute of Technology, priority 2004, dated 2013)

Tests used:
p38 MAPK/MK2 pathway = assay: Immunoblot of p38 MAPK/MK2 activation after DNA-damaging drugs in U2OS cells; type: cell-based, human; settings: U2OS cells, 10 μM drug
Experimental: 14-3-3 pull-down assays, immunoblotting, and immunofluorescence. U2OS cells were lysed in lysis buffer: 50 mM Tris/HCl, pH7.8, 150 mM NaCl, 1.0% NP-40, 5 mM EDTA, 2 mM DTT, 8 μg/ml pepstatin, 8 μg/ml aprotinin, 8 μg/ml leupeptin, 2 mM Na3VO4, 10 mM NaF, 1 μM microcystin for twenty minutes at 4° C. Clarified lysates (0.5-2 mg protein) were incubated with 20 μL glutathione beads or amylose beads containing 10-20 μg 14-3-3-GST or 14-3-3-MBP, respectively, for 120 minutes at 4° C. Following washing, lysates and bead-bound proteins were analysed by SDS-PAGE, followed by transfer to PVDF membranes and immunoblotted with the indicated antibodies. For immunofluorescence experiments, U2OS cells were seeded onto 18 mm^2 coverslips, irradiated or mock-treated, fixed, extracted, and immunostained as described previously (Clapperton et al., Nat. Struct. Mol. Biol., 11:512-518, 2004).

[1] = system: H-Ras-V12 transformed p53−/− MEFs; assay: Tumor formation after implantation of chemotherapy-treated cells in nude mice; type: in vivo; settings: fifteen days; for tumor formation: MAPKAP kinase-2 siRNA-transfected cells pre-treated with 1 μM cisplatin or 0.1 μM doxorubicin before implantation; for size and weight of tumors relative to tumors formed by untreated cells: control siRNA-transfected cells pre-treated with 1 μM cisplatin or 0.1 μM doxorubicin before implantation
Experimental: To establish whether the absence of MAPKAP kinase-2 could also enhance the anti-tumorigenic effect of cisplatin or doxorubicin in vivo, we introduced control or MAPKAP kinase-2 siRNAs into H-Ras-V12 transformed p53^−/− MEFs, treated them with either vehicle alone, 1 μM cisplatin or 0.1 μM doxorubicin, and then implanted them into nude mice. Each animal received two injections of MAPKAP kinase-2 siRNA-transfected cells (left flank), and two injections of control siRNA transfected cells (right flank), and tumor formation was assessed at fifteen days. […] In general, the size of the tumors resulting from injection of MAPKAP kinase-2 depleted cells was larger than that from control siRNA-transfected cells (FIGS. 17A, 17B, and 17D).
Murine tumor models. H-Ras-V 12-transformed p53^−/− MEFs were used for in vivo tumor formation assays. Cells were transfected with siRNA oligonucleotides against GFP or murine MAPKAP kinase-2 for forty-eight hours, then mock treated or incubated with 0.1 μM doxorubicin or 1 μM cisplatin for eight hours, washed three times in growth media, three times in PBS, trypsinized, and resuspended at a concentration of 10^7 cells/ml in PBS. 10^6 cells were subcutaneously injected into the flanks of nude mice (Ncr nu/nu, Taconic).

U2OS cells [2] = assay: FACS cell cycle analysis (PI, phospho-histone H3) in U2OS cells; type: cell-based, human; settings: MAPKAP kinase-2 depleted U2OS cells; 10 μM drug, nocodazole added three hours later, thirty hours
Experimental: Asynchronous MAPKAP kinase-2 or luciferase shRNA knockdown cells were mock treated or exposed to doxorubicin for thirty hours, and cell cycle progression was monitored by FACS. In one set of experiments, the spindle poison nocodazole was added to the media three hours after addition of doxorubicin, to cause any cells progressing through the cell cycle to arrest in mitosis. DNA content was monitored by PI staining; phospho-histone-H3 staining was used as an indicator of mitotic entry. As shown in the left panels of FIG. 14A, treatment of control luciferase shRNA knockdown cells with doxorubicin led to the accumulation of cells with 4N DNA content, and a lack of phospho-histone-H3 staining in either the absence or presence of nocodazole. The cells expressing the luciferase shRNAs behaved identically to the untransfected doxorubicin-treated control U2OS cell population (FIG. 24B), with the prominent 4N DNA component and the absence of phospho-histone-H3 staining indicative of an intact G2/M checkpoint.
In contrast to the G2/M checkpoint response observed in doxorubicin-treated cells, treatment with the DNA intra-strand cross-linker cisplatin caused U2OS cells to predominantly accumulate in the G1 and S phases of the cell cycle over the subsequent thirty hours (FIG. 24C). RNA interference was used to investigate the role of MAPKAP kinase-2 in this process. […] Strikingly, when nocodazole was added three hours following cisplatin addition, the MAPKAP kinase-2 depleted cells accumulated in a 4N DNA containing peak with ˜42% of the cells staining strongly for phospho-histone H3. Identical results were obtained in cells treated with a second unrelated siRNA sequence against MAPKAP kinase-2.
FACS analysis. UV irradiation was performed at 254 nm (UV-C) using a Stratalinker 2400 (Stratagene). U2OS cells were fixed in 70% ethanol overnight at −20° C., permeabilized with PBS containing 0.2% Triton X-100 for twenty minutes at 4° C., blocked with 2% FBS in PBS, and incubated with 1 μg of anti-phospho-histone H3 per 10^6 cells for sixty minutes on ice. […]

U2OS cells [3] = assay: Clonogenic survival assay in U2OS cells; type: cell-based, human; settings: 10 μM cisplatin or 1 μM doxorubicin for eight hours, colonies after eight days
Experimental: The experiments in FIGS. 15A-15C and 16A-16D indicate that MAPKAP kinase-2 is critical for cisplatin- and doxorubicin-triggered G1/S and G2/M arrest. These checkpoint defects in MAPKAP kinase-2 depleted cells might render them more sensitive to the antiproliferative and cytotoxic effects of chemotherapy. To investigate this, control or MAPKAP kinase-2 knockdown U2OS cells were mock treated or incubated with increasing doses of cisplatin or doxorubicin for eight hours, washed, trypsinized and replated, and assayed for colony formation eight days later (FIGS. 16A-16B). […] For example, luciferase shRNA cells treated with either 10 μM cisplatin or 1 μM doxorubicin formed ˜40% of the number of colonies as those formed by untreated cells, while in MAPKAP kinase-2-depleted cells, these same cisplatin and doxorubicin treatments reduced the number of colonies to only 4% and 2%, respectively, of those seen in the untreated cells.
Clonogenic survival assay. Cells were either mock-treated or treated with increasing doses of doxorubicin or cisplatin. After eight hours of treatment, cells were washed three times with growth media and three times with PBS, trypsinized and replated at a concentration of 5000 cells/10 cm^2 dish. After eight days, cells were fixed and stained with 0.1% crystal violet (Sigma-Aldrich). Colonies consisting of >50 cells were counted, and surviving fractions were determined by normalization against untreated cells. Experiments were performed in triplicate and are plotted as mean values with standard deviations indicated by the error bars.

[4] = MAPKAP kinase-2-depleted U2OS cells

Row | SMILES | time to MK2 activation (reduction in electrophoretic mobility, pThr-344) (p38 MAPK/MK2 pathway) | tumor formation [1] | size and weight of tumors relative to tumors formed by untreated cells [1] | cells staining positively for phospho-histone H3 (U2OS cells [2]) | number of colonies relative to untreated cells (U2OS cells [3]; [4]) | number of colonies relative to untreated cells (U2OS cells [3]; luciferase shRNA U2OS cells)
1 | N.N.[Cl][Pt][Cl] [cisplatin] | Within one hour | completely eliminated the formation of tumors | ~35% | ~42% | 4% | ~40%
2 | COc1cccc2c1C(=O)c1c(O)c3c(c(O)c1C2=O)C[C@@](O)(C(=O)CO)C[C@@H]3O[C@H]1C[C@H](N)[C@H](O)[C@H](C)O1 [doxorubicin] | Within one hour | completely eliminated the formation of tumors | ~35% | 36.3% | 2% | ~40%
